These results are taken from patent publication US8883773B2, “Cephem compound having pseudo-catechol group” (Shionogi & Co., Ltd., priority 2010, dated 2014).

In brackets after ≈: the same amount, converted by molar mass. Like-named read-outs stand apart in the source and are kept apart here.

Common to all, as to assay type: cell-based
Test [1] concerns Acinetobacter baumannii SR24396. Put plainly: in vitro antimicrobial activity, MIC by agar plate incubation (Japan Society for Chemotherapy method). The settings on record: 1000 cfu/spot, sensitive disc medium, read-out: Minimum Inhibitory Concentration (MIC). The method, then: (§1) Compound (I) of the subject invention has been investigated for in vitro antimicrobial activity thereof.
(§2) (Microbe/Strain Species Nos. 1-4):
(§3) Measurement of Minimum Inhibitory Concentration (MIC: microgram/ml) was conducted according to the standard method of the Japan Society for Chemotherapy, and the amount of bacteria for inoculation was 1000 cfu/spot, and sensitive disc medium was used as the test medium, and conducted using agar plate incubation.
(§4) In the tables, the unit of the values of inhibitory activity is microgram/ml (μg/ml)

Test [2] deals with Klebsiella pneumoniae ATCC 700603. The test is described as above. The settings on record: ATCC700603, SHV-18, ESBL producing strain, 1000 cfu/spot, sensitive disc medium, read-out: Minimum Inhibitory Concentration (MIC). The protocol:
as §1, §2, §3, §4

Test [3] relates to Pseudomonas aeruginosa SR24. Described as above. The settings on record: no enzyme, Ceftazidime sensitive strain, 1000 cfu/spot, sensitive disc medium, read-out: Minimum Inhibitory Concentration (MIC). The method, then:
as §1, §2, §3, §4

For test [4], the system named is Pseudomonas aeruginosa SR27060. The description is as above. Conditions: IMP-1, MBL producing strain (carbapenem resistant strain), 1000 cfu/spot, sensitive disc medium, read-out: Minimum Inhibitory Concentration (MIC). The method, then:
as §1, §2, §3, §4

The test system of test [5] is Stenotrohomonas maltophilia SR21970. Put plainly: in vitro antimicrobial activity, MIC by agar plate incubation (CLSI method, Mueller-Hinton agar). Conditions: L-1, MBL producing strain (carbapenem resistant strain), 10000 cfu/spot, read-out: Minimum Inhibitory Concentration (MIC). The protocol: as §1
(Microbe/Strain Species Nos. 5):
Measurement of Minimum Inhibitory Concentration (MIC, microgram/ml) was conducted according to the CLSI (Clinical and Laboratory Standards Institute) and the amount of bacteria for inoculation was 10000 cfu/spot, and Mueller-Hinton agar medium was used as the test medium, and conducted using agar plate incubation.
as §4

Where [6] appears, read: SR24396, Acinetobacter baumannii SR24395 (Table 10).

For the compound `CC(C)(O/N=C(\C(=O)N[C@@H]1C(=O)N2C(C(=O)O)=C(C[N+]34CCC(CNC(=O)c5cc(=O)c(O)c[nH]5)(CC3)CC4)CS[C@H]12)c1csc(N)n1)C(=O)[O-]` [Compound I-2], the MIC in test [1] (setting [6]) was 1 µg/mL (≈ 1.34 µM); in test [2], 1 µg/mL (≈ 1.34 µM); in test [3], 0.125 µg/mL (≈ 0.168 µM); in test [4] it was 1 µg/mL (≈ 1.34 µM).

For the compound `CC(C)(O/N=C(\C(=O)N[C@@H]1C(=O)N2C(C(=O)[O-])=C(C[N+]3(CCNC(=O)c4cc(=O)c(O)c[nH]4)CCCC3)CS[C@H]12)c1csc(N)n1)C(=O)[O][Na]` [Compound I-4], the MIC in test [1] (setting [6]) was 0.5 µg/mL; in test [2], 0.25 µg/mL; in test [3] it was 0.063 µg/mL; in test [4], 0.25 µg/mL; in test [5], 1 µg/mL.

As to `CC(C)(O/N=C(\C(=O)N[C@@H]1C(=O)N2C(C(=O)O)=C(C[N+]3(CCNC(=O)c4cc(=O)c(O)cn4O)CCCC3)CS[C@H]12)c1csc(N)n1)C(=O)[O-]` [Compound I-6], the MIC in test [1] (setting [6]) worked out at 0.25 µg/mL (≈ 0.34 µM); in test [2], 0.25 µg/mL (≈ 0.34 µM); in test [3], 0.063 µg/mL (≈ 0.0857 µM); in test [4], 0.25 µg/mL (≈ 0.34 µM); in test [5], 1 µg/mL (≈ 1.36 µM).

For the compound `Nc1nc(/C(=N/O[C@@H](CC(=O)O)C(=O)[O-])C(=O)N[C@@H]2C(=O)N3C(C(=O)O)=C(C[N+]45CCC[C@H]4CN(C(=O)c4cc(=O)c(O)c[nH]4)CC5)CS[C@H]23)cs1` (stereo partly shown) [Compound I-11], the MIC in test [1] (Acinetobacter baumannii SR24396 (Table 11)) was determined as 0.25 µg/mL (≈ 0.329 µM); in test [2], 0.5 µg/mL (≈ 0.657 µM); in test [3], 0.25 µg/mL (≈ 0.329 µM); in test [4], 1 µg/mL (≈ 1.31 µM); in test [5], 1 µg/mL (≈ 1.31 µM).
